What all share (format): biochemical
Test [1] has as its target T1, hepsin (Homo sapiens, UniProt P05981).
T1 construct: purchased R&D Systems 4776-SE-010
In words: Fluorogenic kinetic enzyme inhibitor assay, hepsin.

In test [2] the target is Thrombin (Homo sapiens, UniProt P00734). In words: Fluorogenic assay, thrombin.
Test [3] has as its target TMPRSS2 (Homo sapiens, UniProt O15393). The experiment in a line: Fluorogenic kinetic enzyme inhibitor assay, TMPRSS2. The arrangement: purchased Cusabio Technology CSB-YP023924HU.
Test [4] deals with T2, matriptase (Homo sapiens, UniProt Q9Y5Y6).
T2 construct: purchased R&D Systems 3946-SEB-010
T2 sequence (Q9Y5Y6 615-855 limits assumed): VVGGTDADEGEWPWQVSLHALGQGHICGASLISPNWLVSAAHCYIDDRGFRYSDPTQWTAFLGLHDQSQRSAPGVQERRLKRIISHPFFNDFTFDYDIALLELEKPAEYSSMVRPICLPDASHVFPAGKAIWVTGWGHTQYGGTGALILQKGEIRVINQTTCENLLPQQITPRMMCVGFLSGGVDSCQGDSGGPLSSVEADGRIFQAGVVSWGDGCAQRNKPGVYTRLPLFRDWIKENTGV
The experiment in a line: Fluorogenic kinetic enzyme inhibitor assay, matriptase.

The target in test [5] is T3, HGFA (Homo sapiens, UniProt Q04756).
T3 construct: purchased R&D Systems 1514-SE-010
T3 sequence (Q04756 408-655 limits assumed): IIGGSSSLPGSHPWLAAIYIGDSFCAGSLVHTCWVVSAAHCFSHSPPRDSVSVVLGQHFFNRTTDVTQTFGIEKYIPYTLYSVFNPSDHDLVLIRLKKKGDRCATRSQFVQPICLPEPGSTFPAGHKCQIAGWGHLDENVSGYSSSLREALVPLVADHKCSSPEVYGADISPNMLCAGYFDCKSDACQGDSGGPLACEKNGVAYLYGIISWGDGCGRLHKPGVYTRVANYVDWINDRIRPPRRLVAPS
T3 sequence (Q04756 373-407 partner limits assumed): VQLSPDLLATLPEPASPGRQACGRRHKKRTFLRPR
The experiment in a line: Fluorogenic kinetic enzyme inhibitor assay, HGFA.

The target of test [6] is T4, Factor Xa (Homo sapiens, UniProt P00742).
T4 construct: TMPRSS2; Matriptase; Hepsin; HGFA; Thrombin; Factor Xa
T4 sequence (P00742 235-488 limits assumed): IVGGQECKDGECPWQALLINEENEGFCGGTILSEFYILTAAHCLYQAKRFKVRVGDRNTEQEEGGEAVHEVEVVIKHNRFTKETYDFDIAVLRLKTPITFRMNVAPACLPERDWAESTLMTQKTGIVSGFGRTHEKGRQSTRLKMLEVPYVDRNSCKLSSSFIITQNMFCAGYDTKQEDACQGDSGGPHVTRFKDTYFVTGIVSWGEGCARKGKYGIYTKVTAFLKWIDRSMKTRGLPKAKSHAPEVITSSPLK
T4 sequence (P00742 41-179 partner limits assumed): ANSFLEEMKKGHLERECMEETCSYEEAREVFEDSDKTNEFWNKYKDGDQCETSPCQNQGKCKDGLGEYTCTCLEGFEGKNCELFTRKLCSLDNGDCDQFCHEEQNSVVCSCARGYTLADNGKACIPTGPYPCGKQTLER
In words: Fluorogenic assay, Factor Xa.

The values that follow come from patent US20250171495A1, “MUTLI-TARGETED SERINE PROTEASE INHIBITORS FOR TREATMENT OF CANCER AND VIRAL INFECTION” (Washington University, priority 2023, published 2025).

Each structure is given as a SMILES string. Where two headings read alike, the source gives them in different places. Numbered stars: 1 amine (or outer) side, 2 acyl side, 3 side chain; on linkers, the order of the positions; unused ones are H or OH. Square brackets hold non-standard residues; d marks the D form. Peptide text beside a SMILES is read from it. X1 = N=C(N)NCCC[C@H](N[*:1])C(=O)c1nc2ccc(C(=O)[*:2])cc2s1

What is called IC50 is the concentration at which inhibition is half-maximal.

TMPRSS2, sequence (O15393 106-492 limits assumed): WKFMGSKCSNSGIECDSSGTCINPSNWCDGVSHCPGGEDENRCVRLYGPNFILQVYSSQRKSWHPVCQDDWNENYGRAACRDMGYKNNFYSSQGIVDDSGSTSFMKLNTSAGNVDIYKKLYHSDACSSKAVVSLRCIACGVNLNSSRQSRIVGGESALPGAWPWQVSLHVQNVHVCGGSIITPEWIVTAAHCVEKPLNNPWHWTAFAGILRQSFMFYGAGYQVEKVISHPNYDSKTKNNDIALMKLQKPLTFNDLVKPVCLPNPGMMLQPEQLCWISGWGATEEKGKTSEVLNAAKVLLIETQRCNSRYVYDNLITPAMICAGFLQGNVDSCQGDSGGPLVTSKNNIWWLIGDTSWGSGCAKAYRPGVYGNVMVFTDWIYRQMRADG
T1 sequence (P05981 163-417 limits assumed): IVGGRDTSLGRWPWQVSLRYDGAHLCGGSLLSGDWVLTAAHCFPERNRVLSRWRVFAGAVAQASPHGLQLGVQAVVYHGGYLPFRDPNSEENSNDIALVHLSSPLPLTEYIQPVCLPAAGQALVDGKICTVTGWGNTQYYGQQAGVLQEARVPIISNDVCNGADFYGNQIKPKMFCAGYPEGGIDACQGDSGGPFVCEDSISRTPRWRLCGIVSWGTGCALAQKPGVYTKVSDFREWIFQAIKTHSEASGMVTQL
T1 sequence (P05981 1-162 partner limits assumed): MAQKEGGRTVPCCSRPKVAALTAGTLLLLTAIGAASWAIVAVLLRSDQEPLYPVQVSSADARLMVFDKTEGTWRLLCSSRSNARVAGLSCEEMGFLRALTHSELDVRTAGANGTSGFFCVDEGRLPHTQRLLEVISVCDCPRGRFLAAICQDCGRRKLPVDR

As to `CSCC[C@H](NC(C)=O)C(=O)N[C@@H](CCC(N)=O)C(=O)N[C@@H](Cc1ccccc1)C(=O)N[C@@H](CCCNC(=N)N)C(=O)c1nc2ccccc2s1` [MM3130, N-[(S)-1-[N-(S)-1-[(1,3-benzothiazol-2-yl)carbonyl]-4-guanidinobutylcarbamoyl]-2-phenylethyl](S)-2-[(S)-2-acetylamino-4-(methylthio)butyrylamino] glutaramide], the IC50 in test [1] was 0.134 nM; in test [2], > 20000 nM; in test [3] (read-out: TMPRSS2 IC50), 0.142 nM; in test [4], 0.552 nM; in test [5], 36.4 nM; in test [6] (read-out: Factor Xa IC50), 342 nM.

For the compound `CC(=O)N[C@@H](Cc1c[nH]c2ccccc12)C(=O)N[C@@H](CC(C)C)C(=O)N[C@@H](CCCNC(=N)N)C(=O)c1nc2ccccc2s1` [PK-1-104, N-[(S)-1-[(1,3-benzothiazol-2-yl)carbonyl]-4-guanidinobutyl](S)-2-[(S)-2-acetylamino-3-(3-indolyl)propionylamino]-4-methylvaleramide], the IC50 in test [1] (read-out: Hepsin IC50) is 0.93 nM; in test [2] it was 17000 nM; in test [3] (read-out: TMPRSS2 IC50) it was 1.3 nM; in test [4] (read-out: Matriptase IC50), 25.7 nM; in test [5] (read-out: HGFA IC50), 76.3 nM; in test [6] (read-out: Factor Xa IC50), 890 nM.

`CC(=O)N[C@H](Cc1c[nH]c2ccccc12)C(=O)N[C@@H](Cc1ccccc1)C(=O)N[C@@H](CCCNC(=N)N)C(=O)c1nc2ccccc2s1` [PK-1-89A1, N-[(S)-1-[(1,3-benzothiazol-2-yl)carbonyl]-4-guanidinobutyl](S)-2-[(R)-2-acetylamino-3-(3-indolyl)propionylamino]-3-phenylpropionamide]: the IC50 is 1.1 nM in test [1] (read-out: Hepsin IC50); > 20000 nM in test [2]; 0.156 nM in test [3] (read-out: TMPRSS2 IC50); 2.6 nM in test [4] (read-out: Matriptase IC50); 27 nM in test [5] (read-out: HGFA IC50); 98 nM in test [6] (read-out: Factor Xa IC50).

Regarding `CCC(C)[C@H](NC(C)=O)C(=O)N[C@@H](CCC(N)=O)C(=O)N[C@@H](Cc1c[nH]c2ccccc12)C(=O)N[C@@H](CCCNC(=N)N)C(=O)c1nc2ccccc2s1` (stereo partly drawn) [MM3187, N-[(S)-2-(3-indolyl)-1-[N-(S)-1-[(1,3-benzothiazol-2-yl)carbonyl]-4-guanidinobutylcarbamoyl]ethyl](S)-2-[(2S)-2-acetylamino-3-methylvalerylamino]glutaramide], the IC50 is 0.319 nM in test [1] (read-out: Hepsin IC50); > 20000 nM in test [2]; 2.19 nM in test [3] (read-out: TMPRSS2 IC50); 1.23 nM in test [4]; 1450 nM in test [5] (read-out: HGFA IC50); 129 nM in test [6] (read-out: Factor Xa IC50).

For `CC(=O)N[C@@H](Cc1c[nH]c2ccccc12)C(=O)N[C@@H](CC(C)C)C(=O)N[C@@H](Cc1ccccc1)C(=O)N[C@@H](CCCNC(=N)N)C(=O)c1nc2ccccc2s1` [ZFH7064, N-[(S)-1-[N-(S)-1-[(1,3-benzothiazol-2-yl)carbonyl]-4-guanidinobutylcarbamoyl]-2-phenylethyl](S)-2-[(S)-2-acetylamino-3-(3-indolyl)propionylamino]-4-methylvaleramide], the IC50 in test [1] is 0.69 nM; in test [2], > 20000 nM; in test [3] (read-out: TMPRSS2 IC50), 0.092 nM; in test [4] it was 12 nM; in test [5] it was 266 nM; in test [6] (read-out: Factor Xa IC50), 2 nM.

As for `CC(=O)N[C@@H](CO)C(=O)N[C@@H](CCCCN)C(=O)N[C@@H](Cc1ccccc1)C(=O)N[C@@H](CCCNC(=N)N)C(=O)c1nccs1` [ZFH6095, N-[(S)-1-[N-(S)-4-guanidino-1-[(1,3-thiazol-2-yl)carbonyl]butylcarbamoyl]-2-phenylethyl](S)-2-[(S)-2-acetylamino-3-hydroxypropionylamino]-6-aminohexanamide], the half-inhibitory concentration (IC50) is 17 nM in test [1] (read-out: Hepsin IC50); > 20000 nM in test [2]; 7.89 nM in test [3] (read-out: TMPRSS2 IC50); 6.1 nM in test [4]; 114 nM in test [5]; 1060 nM in test [6] (read-out: Factor Xa IC50).

As for `CC(=O)N[C@H]1Cc2ccc(cc2)OCCCC[C@@H](C(=O)N[C@@H](CCCNC(=N)N)C(=O)c2nc3ccccc3s2)NC(=O)[C@H](Cc2c[nH]c3ccccc23)NC1=O` [VD4158, N-[(S)-1-[(1,3-benzothiazol-2-yl)carbonyl]-4-guanidinobutyl]-(7S,10S,13S)-13-acetylamino-10-[(3-indolyl)methyl]-9,12-dioxo-2-oxa-8,11-diazabicyclo[13.2.2]nonadeca-1(17),15,18-triene-7-carboxamide], the IC50 in test [1] was 2.84 nM; in test [2], > 20000 nM; in test [3] (30 min incubation, Boc-QAR-AMC at Km, read-out: TMPRSS2 IC50), 15.8 nM; in test [4] (30 min incubation, Boc-QAR-AMC at Km, read-out: Matriptase IC50) it was 56.8 nM; in test [5] (30 min incubation, Boc-QLR-AMC at Km, read-out: HGFA IC50), 85.2 nM; in test [6] (read-out: Factor Xa IC50) it was 9530 nM.

As for `CC(=O)N[C@@H](CC(C)C)C(=O)N[C@@H](CCC(N)=O)C(=O)N[C@@H](Cc1ccccc1)C(=O)N[C@@H](CCCNC(=N)N)C(=O)c1nc2ccccc2s1` [MM3131, N-[(S)-1-[N-(S)-1-[(1,3-benzothiazol-2-yl)carbonyl]-4-guanidinobutylcarbamoyl]-2-phenylethyl](S)-2-[(S)-2-acetylamino-4-methylvalerylamino]glutaramide], the IC50 in test [1] was 0.247 nM; in test [2], > 20000 nM; in test [3] (read-out: TMPRSS2 IC50), 0.031 nM; in test [4], 1.8 nM; in test [5], 98.2 nM; in test [6], 219 nM.

As to `N=C(N)NCCC[C@H](NC(=O)[C@H](Cc1ccccc1)NC(=O)[C@H](CCC(N)=O)NC(=O)Cc1ccccc1)C(=O)c1nc2ccccc2s1` [CA1018, N-[(S)-1-[N-(S)-1-[(1,3-benzothiazol-2-yl)carbonyl]-4-guanidinobutylcarbamoyl]-2-phenylethyl](S)-2-(benzylcarbonylamino) glutaramide], the IC50 is 0.65 nM in test [1] (read-out: Hepsin IC50); > 20000 nM in test [2]; 0.407 nM in test [3] (read-out: TMPRSS2 IC50); 0.99 nM in test [4] (read-out: Matriptase IC50); 75.2 nM in test [5] (read-out: HGFA IC50); 212 nM in test [6] (read-out: Factor Xa IC50).

On to `N=C(N)NCCC[C@H](NC(=O)[C@H](Cc1ccccc1)NC(=O)[C@H](CCC(N)=O)N1CCCCC1)C(=O)c1nc2ccccc2s1` [CA1046-2, N-[(S)-1-[N-(S)-1-[(1,3-benzothiazol-2-yl)carbonyl]-4-guanidinobutylcarbamoyl]-2-phenylethyl](S)-2-piperidinoglutaramide], for which the IC50 in test [1] (read-out: Hepsin IC50) is 0.37 nM; in test [2], > 20000 nM; in test [3] (read-out: TMPRSS2 IC50) it was 8.23 nM; in test [4] (read-out: Matriptase IC50) it was 41.4 nM; in test [5] (read-out: HGFA IC50), 704 nM; in test [6] (read-out: Factor Xa IC50), 2070 nM.

`CC(=O)N[C@H]1C/C=C\COc2ccc(cc2)C[C@@H](C(=O)N[C@@H](CCCNC(=N)N)C(=O)c2nc3ccccc3s2)NC(=O)[C@H](CC(C)C)NC1=O` [VD4051, N-[(S)-1-[(1,3-benzothiazol-2-yl)carbonyl]-4-guanidinobutyl]-(4Z,7S,10S,13S)-7-acetylamino-10-isobutyl-8,11-dioxo-2-oxa-9,12-diazabicyclo[13.2.2]nonadeca-1(17),4,15,18-tetraene-13-carboxamide]: the IC50 is 20 nM in test [1]; > 20000 nM in test [2]; 14.2 nM in test [3] (read-out: TMPRSS2 IC50); 14 nM in test [4]; > 20000 nM in test [5]; 8810 nM in test [6] (read-out: Factor Xa IC50).

For `N=C(N)NCCC[C@H](NC(=O)[C@H](Cc1ccccc1)NC(=O)[C@H](CCC(N)=O)NCc1ccccc1)C(=O)c1nc2ccccc2s1` [CA1022-2, N-[(S)-1-[N-(S)-1-[(1,3-benzothiazol-2-yl)carbonyl]-4-guanidinobutylcarbamoyl]-2-phenylethyl](S)-2-benzylaminoglutaramide], the IC50 was 0.2 nM in test [1] (read-out: Hepsin IC50); > 20000 nM in test [2]; 0.993 nM in test [3] (read-out: TMPRSS2 IC50); 2.31 nM in test [4] (read-out: Matriptase IC50); 50.4 nM in test [5] (read-out: HGFA IC50); 40 nM in test [6] (read-out: Factor Xa IC50).

As to `CC(=O)N[C@@H](CO)C(=O)N[C@@H](CCCCN)C(=O)N[C@@H](CC(C)C)C(=O)N[C@@H](CCCNC(=N)N)C(=O)c1nc2ccc(C(=O)N[C@H](C(N)=O)C(C)C)cc2s1` [ZFH7116, N-[(S)-1-carbamoyl-2-methylpropyl]-2-[(S)-2-[(S)-2-[(S)-1-[(S)-2-acetylamino-3-hydroxypropionylamino]-5-aminopentylcarbonyl-amino]-4-methylvalerylamino]-5-guanidinovaleryl]-1,3-benzothiazole-6-carboxamide] (Ac-SKL[X1]V-NH2), the concentration for half-maximal inhibition (IC50) in test [1] (read-out: Hepsin IC50) turned out to be 1 nM; in test [2], 7530 nM; in test [3], 2.5 nM; in test [4] (read-out: Matriptase IC50), 14 nM; in test [5] (read-out: HGFA IC50), 23 nM; in test [6] (read-out: Factor Xa IC50), 514 nM.
